The results in this text go back to paper PMC3958260 (2014).

In assay [1] the test system is aptamer # 13_82 (DNA, aptamer) ATACCAGCTTATTCAATTCAGGGCGGTATGAGGCTCGATCAAGGTCGGAGCGAGAATTTTTTCGCGGAGTCGGCTGGATCAGATAGTAAGTGCAATCT
As to the kind of experiment: bead fluorescence release assay. The note with it: 100 mM Na+, 5 mM K+, 2 mM Mg2+, 1 mM Ca2+; 20 mM Tris-HCl pH 7.6, 21 °C; 1 mM compound; release from capture oligo iODN2Sp; single concentration.

Assay [2] concerns aptamer # 3_7 (DNA, aptamer) ATACCAGCTTATTCAATTGGTGGTAGGATGGGCTCGATCGAGGTCTTCAGTCGGCTCGGTTTAGTTTATGTTCTCCTGTAGATAGTAAGTGCAATCT
In words: bead fluorescence release assay. The note with it: 100 mM Na+, 5 mM K+, 2 mM Mg2+, 1 mM Ca2+; 20 mM Tris-HCl pH 7.6, 21 °C; 1 mM compound; release from capture oligo iODN2Sp; single concentration.

Assay [3] deals with aptamer # 11_76 (DNA, aptamer) ATACCAGCTTATTCAATTATGCGGGGATGAGGCTTGATCTGTGGCTCTGATCCATGATCAGTCGTCTTACGTGCGGTCCAGATAGTAAGTGCAATCT
In words: bead fluorescence release assay. The note with it: 100 mM Na+, 5 mM K+, 2 mM Mg2+, 1 mM Ca2+; 20 mM Tris-HCl pH 7.6, 21 °C; 1 mM compound; release from capture oligo iODN2Sp; single concentration.

In assay [4] the test system is aptamer # 3_19 (DNA, aptamer) ATACCAGCTTATTCAATTAGCCCGGTATTGAGGTCGATCTCTTATCCTATGGCTTGTCCCCCATGGCTCGGTTATATCCAGATAGTAAGTGCAATCT
As to the kind of experiment: bead fluorescence release assay. The note with it: 100 mM Na+, 5 mM K+, 2 mM Mg2+, 1 mM Ca2+, 20 mM Tris-HCl pH 7.6, 21 °C, 1 mM compound, release from capture oligo iODN2Sp; for amount of eluted aptamer DNA: single concentration; for binding: below 1 pmol threshold.

The subject of assay [5] is aptamer # 3_7(1-79) (DNA, aptamer) ATACCAGCTTATTCAATTGGTGGTAGGATGGGCTCGATCGAGGTCTTCAGTCGGCTCGGTTTAGTTTATGTTCTCCTGT
As to the kind of experiment: bead fluorescence release assay. The note with it: 100 mM Na+, 5 mM K+, 2 mM Mg2+, 1 mM Ca2+; 20 mM Tris-HCl pH 7.6, 21 °C; 1 mM compound; release from capture oligo iODN2Sp; single concentration.

Assay [6] relates to aptamer # 13_82(19-80) (DNA, aptamer) CAGGGCGGTATGAGGCTCGATCAAGGTCGGAGCGAGAATTTTTTCGCGGAGTCGGCTGGATC
In words: MTP fluorescence release assay. The note with it: 100 mM Na+, 5 mM K+, 2 mM Mg2+, 1 mM Ca2+; 20 mM Tris-HCl pH 7.6, 21 °C; release from capture oligo iODN2Sp; elution not above background.

The test system is the same in assay [7]. As to the kind of experiment: bead fluorescence release assay. The note with it: 100 mM Na+, 5 mM K+, 2 mM Mg2+, 1 mM Ca2+; 20 mM Tris-HCl pH 7.6, 21 °C; 1 mM compound; release from capture oligo iODN2Sp; single concentration.
For assay [8], the system named is aptamer # 3_7(1-79) (DNA, aptamer) ATACCAGCTTATTCAATTGGTGGTAGGATGGGCTCGATCGAGGTCTTCAGTCGGCTCGGTTTAGTTTATGTTCTCCTGT
In words: fluorescence (bead or MTP assay) or SPR, capture-oligo release. The note with it: 100 mM Na+, 5 mM K+, 2 mM Mg2+, 1 mM Ca2+; 20 mM Tris-HCl pH 7.6; release from capture oligo iODN2Sp; micromolar range; apparent.

In assay [9] the test system is aptamer # 3_19 (DNA, aptamer) ATACCAGCTTATTCAATTAGCCCGGTATTGAGGTCGATCTCTTATCCTATGGCTTGTCCCCCATGGCTCGGTTATATCCAGATAGTAAGTGCAATCT
Described as above. The note with it: 100 mM Na+, 5 mM K+, 2 mM Mg2+, 1 mM Ca2+; 20 mM Tris-HCl pH 7.6; release from capture oligo iODN2Sp; micromolar range; apparent.

Assay [10] concerns aptamer # 11_76 (DNA, aptamer) ATACCAGCTTATTCAATTATGCGGGGATGAGGCTTGATCTGTGGCTCTGATCCATGATCAGTCGTCTTACGTGCGGTCCAGATAGTAAGTGCAATCT
The assay is described as above. The note with it: 100 mM Na+, 5 mM K+, 2 mM Mg2+, 1 mM Ca2+; 20 mM Tris-HCl pH 7.6; release from capture oligo iODN2Sp; micromolar range; apparent.

Assay [11] has as its system aptamer # 13_82(19-80) (DNA, aptamer) CAGGGCGGTATGAGGCTCGATCAAGGTCGGAGCGAGAATTTTTTCGCGGAGTCGGCTGGATC
The description is as above. The note with it: 100 mM Na+, 5 mM K+, 2 mM Mg2+, 1 mM Ca2+; 20 mM Tris-HCl pH 7.6; release from capture oligo iODN2Sp; micromolar range; apparent.

Assay [12] concerns # 3_19(1-79) (DNA, aptamer) ATACCAGCTTATTCAATTAGCCCGGTATTGAGGTCGATCTCTTATCCTATGGCTTGTCCCCCATGGCTCGGTTATATCC
As to the kind of experiment: MTP fluorescence release assay. The note with it: 100 mM Na+, 5 mM K+, 2 mM Mg2+, 1 mM Ca2+; 20 mM Tris-HCl pH 7.6, 21 °C; release from capture oligo iODN2Sp; elution not above background.

Assay [13] concerns aptamer # 13_82 (DNA, aptamer) ATACCAGCTTATTCAATTCAGGGCGGTATGAGGCTCGATCAAGGTCGGAGCGAGAATTTTTTCGCGGAGTCGGCTGGATCAGATAGTAAGTGCAATCT
In words: fluorescence (bead or MTP assay) or SPR, capture-oligo release. The note with it: 100 mM Na+, 5 mM K+, 2 mM Mg2+, 1 mM Ca2+; 20 mM Tris-HCl pH 7.6; release from capture oligo iODN2Sp; micromolar range; apparent.

The structures appear in SMILES notation.

For `CCN[C@@H]1C[C@H](N)[C@@H](O[C@H]2OC(CN)=CC[C@H]2N)[C@H](O)[C@H]1O[C@H]1OC[C@](C)(O)[C@H](NC)[C@H]1O`, the “amount of eluted aptamer DNA” value in assay [1] came to 1.01 pmol; in [2] it was 1.03 pmol; in [3], 1.03 pmol.

For the molecule `CN[C@@H]1[C@@H](O[C@H]2O[C@H](CO)[C@@H](N)[C@H](O)[C@H]2O)O[C@H]2C[C@@H](N)[C@@H](O[C@H]3[C@H](O)[C@@H](O)[C@H](N)C[C@@H]3N)O[C@@H]2[C@@H]1O`, the “amount of eluted aptamer DNA” value in assay [4] turned out to be 2.27 pmol; in [1], 3.40 pmol; in assay [5], 1.68 pmol; in [2], 3.04 pmol; in assay [3], 3.04 pmol.

For `NC[C@@H]1O[C@H](O[C@H]2[C@@H](O)[C@H](O[C@@H]3[C@@H](O)[C@H](N)C[C@H](N)[C@H]3O[C@H]3O[C@H](CO)[C@@H](O)[C@H](O)[C@H]3N)O[C@@H]2CO)[C@H](N)[C@@H](O)[C@@H]1O`, in assay [6], the binding entry is listed as “no”.

Regarding `NC[C@H]1O[C@H](O[C@H]2[C@H](O)[C@@H](O[C@H]3O[C@H](CO)[C@@H](O)[C@H](N)[C@H]3O)[C@H](N)C[C@@H]2N)[C@H](N)C[C@@H]1O`, the binding result in assay [4] is recorded as “no”. The “amount of eluted aptamer DNA” value in assay [7] was 1.13 pmol; in [1], 2.78 pmol; in assay [5] it was 1.91 pmol; in assay [3] it was 4.03 pmol.

For the molecule `NC[C@H]1O[C@H](O[C@H]2[C@H](O)[C@@H](O[C@H]3O[C@H](CO)[C@@H](O)[C@H](N)[C@H]3O)[C@H](N)C[C@@H]2N)[C@H](N)[C@@H](O)[C@@H]1O`, in [4], the binding entry is reported as “no”. Also, the “amount of eluted aptamer DNA” value came out at 3.09 pmol in assay [7]; 7.22 pmol in assay [1]; 8.04 pmol in assay [5]; 4.42 pmol in assay [2]; 5.21 pmol in assay [3].

On to `NC[C@H]1O[C@H](O[C@H]2[C@H](O)[C@@H](O[C@H]3O[C@H](CO)[C@@H](O)[C@H](N)[C@H]3O)[C@H](N)C[C@@H]2N)[C@H](O)[C@@H](O)[C@@H]1O`, for which the “amount of eluted aptamer DNA” value is recorded as 3.02 pmol in [4]; 6.87 pmol in assay [7]; 6.85 pmol in [1]; 10.44 pmol in [5]; 4.62 pmol in assay [2]; 5.02 pmol in assay [3]. The dissociation constant in assay [8] is listed as 146 µM; in [9], 3.9 µM; in assay [10] it was 9.6 µM; in assay [11] it was 5.4 µM; in [13], 5.1 µM. Further, the binding entry in [12] is on record as “no”.
